Results as given in US4117230A, “Hydantoin derivatives as therapeutic agents” (priority 1977, dated 1978).

Key:
[1] = test system: sorbitol accumulation in the sciatic nerve of streptozotocinized (i.e., diabetic) rats; assay: inhibition of sorbitol accumulation in the sciatic nerve of acutely streptozotocinized (diabetic) rats; type: in vivo, rat; conditions: measured at 27 h, vs untreated
Description: (§1) The activity of the compounds of the present invention, as agents for the control of chronic diabetic complications, is determined by their ability to successfully pass one or more of the following standard biological and/or pharmacological tests, viz., (1) measuring their ability to inhibit the enzyme activity of isolated aldose reductase; (2) measuring their ability to reduce or inhibit sorbitol accumulation in the sciatic nerve of acutely sterptozotocinized (i.e., diabetic) rats; (3) measuring their ability to reverse already-elevated sorbitol levels in the sciatic nerve and lens of chronic streptozotocin-induced diabetic rats; (4) measuring their ability to prevent or inhibit galactitol formation in the lens of acutely galactosemic rats, and (5) measuring their ability to delay cataract formation and reduce the severity of lens opacities in chronic galactosemic rats.
The following spiro-hydantoin compounds of Preparation C and Examples I-V, VII-IX, XI-XVII, XIX-XXV, XXVII and XXX-XXXIII, respectively, were tested for their ability to reduce or inhibit sorbitol accumulation in the sciatic nerve of streptozotocinized (i.e., diabetic) rats by the procedure essentially described in U.S. Pat. No. 3,821,383. In the present study, the amount of sorbitol accumulation in the sciatic nerves was measured 27 hours after induction of diabetes. The compounds were administered orally at the dose levels indicated at 4, 8 nd 24 hours following the administration of streptozotocin. The results obtained in this manner are presented below in terms of percent inhibition (%) afforded by the test compound as compared to the case where no compound was administered (i.e., the untreated animal where sorbitol levels normally rise from approximately […]. tissue to as high as […]. tissue in the 27-hour test period): […]

aldose reductase = biological target: T1, aldose reductase (Bos taurus, UniProt P16116); assay: inhibition of aldose reductase enzyme activity (procedure of S. Hayman et al., modified by K. Sestanj et al.); type: biochemical, calf; conditions: calf lens enzyme, read-out: Percent inhibition of aldose reductase enzyme activity; for inhibition at 100 µM: 10^-4 M; for inhibition at 10 µM: 10^-5 M; for inhibition at 1 µM: 10^-6 M; for inhibition at 0.1 µM: 10^-7 M
T1 construct: partially purified aldose reductose enzyme obtained from calf lens; from tissue; host or cells: calf lens
Description: as §1
Hayman et al., as described in the Journal of Biological Chemistry, Vol. 240, p. […] In every case, the substrate employed ws partially purified aldose reductose enzyme obtained from calf lens.

[2] = 2.5 mg./kg. orally at 4, 8 and 24 h after streptozotocin
[3] = 5.0 mg./kg. orally at 4, 8 and 24 h after streptozotocin
[4] = 10 mg./kg. orally at 4, 8 and 24 h after streptozotocin
[5] = 1.5 mg./kg. orally at 4, 8 and 24 h after streptozotocin

Row | inhibition at 100 µM (aldose reductase) [%] | inhibition at 10 µM (aldose reductase) [%] | inhibition at 1 µM (aldose reductase) [%] | inhibition at 0.1 µM (aldose reductase) [%] | Compound | Percent inhibition of sorbitol accumulation in the sciatic nerve [1, 2] [%] | Percent inhibition of sorbitol accumulation in the sciatic nerve [1, 3] [%] | Percent inhibition of sorbitol accumulation in the sciatic nerve [1, 4] [%] | Percent inhibition of sorbitol accumulation in the sciatic nerve [1, 5] [%] | Percent inhibition of sorbitol accumulation in the sciatic nerve ([1]; 0.75 mg./kg. orally at 4, 8 and 24 h after streptozotocin) [%]
1 | 79 | 87 | 71 | 30 | O=C1NC(=O)C2(CCSc3ccc(Cl)cc32)N1 (centres unmarked) [Ex. IX, 6'-chloro-spiro-[imidazolidine-4,4'-thiochroman]-2,5-dione] | 58 | – | – | – | –
2 | 74 | 12 | 22 | -1 | O=C1NC(=O)C2(CCc3ccc(F)cc32)N1 (centres unmarked) [Ex. III, 6'-fluoro-spiro-[imidazolidine-4,1'-indan]-2,5-dione] | – | 45 | – | – | –
3 | 92 | 64 | 10 | -5 | O=C1NC(=O)C2(CCSc3ccccc32)N1 (centres unmarked) [Ex. VII, spiro-[imidazolidine-4,4'-thiochroman]-2,5-dione] | – | 39 | 65 | – | –
4 | 100 | 92 | 35 | 7 | COc1ccc2c(c1)C1(CCO2)NC(=O)NC1=O (centres unmarked) [Ex. XXI, 6-methoxy-spiro[chroman-4,4'-imidazolidine]-2',5'-dione] | 24 | – | – | – | –
5 | 72 | 49 | 5 | 0 | COc1cccc2c1CCCC21NC(=O)NC1=O (centres unmarked) [Ex. XXVI, 3',4'-dihydro-5'-methoxy-spiro[imidazolidine-4,1'(2'H)-naphthalene]-2,5-dione] | – | – | – | – | –
6 | 83 | 54 | 9 | -2 | O=C1NC(=O)C2(CCCc3ncccc32)N1 (centres unmarked) [Ex. XV, 7',8'-dihydro-spiro[imidazolidine-4,5'(6H)-quinoline]-2,5-dione] | – | 5 | 52 | – | –
7 | 93 | 31 | 11 | -30 | O=C1NC(=O)C2(CCc3ccc(O)cc32)N1 (centres unmarked) [Ex. XIX, 6'-hydroxy-spiro-[imidazolidine-4,1'indan]-2,5-dione] | – | – | 15 | – | –
8 | 90 | 81 | 35 | 9 | COc1cc2c(cc1OC)C1(CC2)NC(=O)NC1=O (centres unmarked) [Ex. IV, 5',6'-dimethoxy-spiro-[imidazolidine-4,1'-indan]-2,5-dione] | – | 33 | 49 | – | –
9 | 60 | – | – | – | O=C1NC(=O)C2(CCSc3c(Cl)cccc32)N1 (centres unmarked) [Ex. XIII, 8'-chloro-spiro-[imidazolidine-4,4'-thiochroman]-2,5-dione] | – | – | – | 5 | –
10 | 81 | 64 | 22 | 4 | O=C1NC(=O)C2(CS(=O)(=O)c3ccccc32)N1 (centres unmarked) [Ex. XXXIII, spiro-[imidazolidine-4,3'-thioindan]-2,5-dione-1,1'-dioxide] | – | 5 | – | – | –
11 | 71 | 84 | 54 | 17 | Cc1cc(C)c2c(c1)C1(CCO2)NC(=O)NC1=O (centres unmarked) [Ex. XXXIV, 6,8-dimethyl-spiro-[chroman-4,4'-imidazolidine]-2',5'-dione] | – | – | – | – | –
12 | 70 | – | – | – | O=C1NC(=O)C2(CCSc3cc(Cl)ccc32)N1 (centres unmarked) [Ex. XIV, 7'-chloro-spiro-[imidazolidine-4,4'-thiochroman]-2,5-dione] | – | – | – | 26 | –
13 | 72 | 38 | 15 | 7 | COc1ccc2c(c1)CCCC21NC(=O)NC1=O (centres unmarked) [Ex. XVIII, 3',4'-dihydro-6'-methoxy-spiro[imidazolidine-4,1'(2'H)naphthalene]-2,5-dione] | – | – | – | – | –
14 | 87 | 80 | 64 | 16 | O=C1NC(=O)C2(CC[S+]([O-])c3ccc(F)cc32)N1 (centres unmarked) [Ex. XXX, 6'-fluoro-spiro-[imidazolidine-4,4'-thiochroman]-2,5-dione-1'-oxide] | – | – | – | 35 | –
15 | 72 | 34 | 13 | 7 | O=C1NC(=O)C2(CCCc3ccccc32)N1 (centres unmarked) [Prep. C, 3',4'-Dihydro-spiro-[imidazolidine-4,1'(2'H)-naphthalene]-2,5-dione, reference compound] | – | 3 | 40 | – | –
16 | 32 | – | – | – | O=C1NC(=O)C2(CCSc3ccc(Br)cc32)N1 (centres unmarked) [Ex. X, 6-bromo-spiro-[imidazolidine-4,4'-thiochroman]-2,5-dione] | – | – | – | – | –
17 | 97 | 61 | 17 | 1 | COc1ccc2c(c1)C1(CC2)NC(=O)NC1=O (centres unmarked) [Ex. II, 6'-methoxy-spiro-[imidazolidine-4,1'-indan]-2,5-dione] | – | 6 | 54 | – | –
18 | 85 | 74 | 74 | 28 | O=C1NC(=O)C2(CCS(=O)(=O)c3ccc(F)cc32)N1 (centres unmarked) [Ex. XXXI, 6'-fluoro-spiro-[imidazolidine-4,4'-thiochroman]-2,5-dione-1',1'-dioxide] | 47 | 68 | – | – | –
19 | 92 | 67 | 25 | 3 | O=C1NC(=O)C2(CCc3cc4c(cc32)OCO4)N1 (centres unmarked) [Ex. V, 5',6'-methylenedioxy-spiro-[imidazolidine-4,1'-indan]-2,5-dione] | – | 9 | – | – | –
20 | 74 | – | – | – | O=C1NC(=O)C2(CCOc3ccc(Br)cc32)N1 (centres unmarked) [Ex. XXVIII, 6-bromo-spiro-[chroman-4,4'-imidazolidine]-2',5'-dione] | – | – | – | – | –
21 | 82 | 60 | 13 | -10 | COc1ccc2c(c1)CCC21NC(=O)NC1=O (centres unmarked) [Ex. VI, 5'-methoxy-spiro-[imidazolidine-4,1'-indan]-2,5-dione] | – | – | – | – | –
22 | 94 | 69 | 31 | 2 | O=C1NC(=O)C2(CCS(=O)(=O)c3ccccc32)N1 (centres unmarked) [Ex. XXXII, spiro-[imidazolidine-4,4'-thiochroman]-2,5-dione-1',1'-dioxide] | – | – | – | – | –
23 | 76 | 60 | 18 | 7 | COc1ccc2c(c1)C1(CCS2)NC(=O)NC1=O (centres unmarked) [Ex. VIII, 6'-methoxy-spiro-[imidazolidine-4,4'-thiochroman]-2,5-dione] | – | 26 | – | – | –
24 | 81 | 77 | 66 | 38 | O=C1NC(=O)C2(CCSc3ccc(F)cc32)N1 (centres unmarked) [Ex. XII, 6'-fluoro-spiro-[imidazolidine-4,4'-thiochroman]-2,5-dione] | 74 | – | – | 45 | 13
25 | 82 | 26 | 8 | 16 | COc1cc2c(cc1OC)C1(CCC2)NC(=O)NC1=O (centres unmarked) [Ex. XVII, 3',4'-dihydro-6',7'-dimethoxy-spiro[imidazolidine-4,1'-(2H)naphthalene]-2,5-dione] | – | – | – | – | –
